Reference: patent publication US20090233931A1, “THERAPEUTIC COMPOUNDS” (priority 2008, published 2009)

System: lashes and adjacent hairs of glaucoma patients
Experiment: Eyelash/hair growth observed in glaucoma patients treated in one eye
Type: in vivo, humans
Conditions: glaucoma patient treated in one eye only
From the text: In the course of treating patients having glaucoma, treatment may only be appropriate in one eye. […] The lash appearance on the lids of the treated eyes would have appeared quite attractive if it represented a bilateral phenomenon. As a result of its asymmetric nature, the long lashes on one side could be construed as disturbing from a cosmetic standpoint. A systemic examination was preformed as a result of the asymmetric phenomenon. It soon became apparent that this altered appearance was not an isolated finding. […] Definite differences could be identified to varying degrees in the lashes and adjacent hairs of all patients who were taking the drug on a unilateral basis for longer than 6 months.
The changes in the lashes were apparent on gross inspection in several patients once attention was focused on the issue. In those with light colored hair and lashes, the differences were only seen easily with the aid of the high magnification and lighting capabilities of the slit lamp biomicroscope. In the course of glaucoma follow-up examination, attention is generally immediately focused on the eye itself. As a result of the high power magnification needed only one eye is seen at a time and the eye is seen at a high enough power that the lashes are not in focus. […]

Question: Which “lash appearance in treated eye versus non-treated eye” value does the source give for `CCNC(=O)CCC/C=C\C[C@@H]1[C@@H](/C=C/[C@@H](O)CCc2ccccc2)[C@H](O)C[C@@H]1O` [bimatoprost] here?
Answer: longer, thicker, and fuller
